Among the data in patent US11021444B2, “Antiviral compounds” (priority 2013, dated 2021) are EC50, CC50 and IC50 values, retold here.

The test system of data set [1] is Respiratory Syncytial Virus (RSV) long strain. The data set can be described thus: microbe, parasite or virus in culture. The data set is classed as cell-based. As to conditions: human respiratory syncytial virus, Tables A and B list compounds by EC50 band. In outline: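 CPE-reduction format: viability measured colorimetrically with CCK-8 (450 nm, 630 nm reference) after 3-4 h, following 5-day infection at 37 °C, 5% CO2. Cells were HEp-2; inoculum 100 TCID50/well; duplicate 9-point 1/3 series starting at 100 μM or 1 μM.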

Data set [2] is described as follows: Cytotoxicity Determination (CCK-8, without addition of virus). As to conditions: human, 50% cytotoxicity concentration (CC50). The class given is cell-based. In outline:
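Cytotoxicity was measured by CCK-8 after 3-4 hours at 37 °C, following 5 days of uninfected exposure at 37 °C and 5% CO2. Compounds ran as duplicate 7-point 1/2 dilutions starting at 100 μM, with 1% final DMSO. HEp-2 cells had been plated at 1,500/well the day before.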

The target of data set [3] is recombinant RSV complex (Human respiratory syncytial virus A, UniProt P28887). The data set is described as follows: RSV Polymerase Inhibition Assay. The class given is biochemical. In short, it runs like this: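 Inhibition measured as reduced incorporation of radiolabel into RNA products, detected by scintillation counting. Reactions: recombinant RSV complex (10 nM), RNA oligonucleotides, Tris-HCl pH 7.5, 6 mM MgCl2, inhibitor titration, 2 h at 30 °C, EDTA stop.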
recombinant RSV complex, sequence (P28887 whole entry): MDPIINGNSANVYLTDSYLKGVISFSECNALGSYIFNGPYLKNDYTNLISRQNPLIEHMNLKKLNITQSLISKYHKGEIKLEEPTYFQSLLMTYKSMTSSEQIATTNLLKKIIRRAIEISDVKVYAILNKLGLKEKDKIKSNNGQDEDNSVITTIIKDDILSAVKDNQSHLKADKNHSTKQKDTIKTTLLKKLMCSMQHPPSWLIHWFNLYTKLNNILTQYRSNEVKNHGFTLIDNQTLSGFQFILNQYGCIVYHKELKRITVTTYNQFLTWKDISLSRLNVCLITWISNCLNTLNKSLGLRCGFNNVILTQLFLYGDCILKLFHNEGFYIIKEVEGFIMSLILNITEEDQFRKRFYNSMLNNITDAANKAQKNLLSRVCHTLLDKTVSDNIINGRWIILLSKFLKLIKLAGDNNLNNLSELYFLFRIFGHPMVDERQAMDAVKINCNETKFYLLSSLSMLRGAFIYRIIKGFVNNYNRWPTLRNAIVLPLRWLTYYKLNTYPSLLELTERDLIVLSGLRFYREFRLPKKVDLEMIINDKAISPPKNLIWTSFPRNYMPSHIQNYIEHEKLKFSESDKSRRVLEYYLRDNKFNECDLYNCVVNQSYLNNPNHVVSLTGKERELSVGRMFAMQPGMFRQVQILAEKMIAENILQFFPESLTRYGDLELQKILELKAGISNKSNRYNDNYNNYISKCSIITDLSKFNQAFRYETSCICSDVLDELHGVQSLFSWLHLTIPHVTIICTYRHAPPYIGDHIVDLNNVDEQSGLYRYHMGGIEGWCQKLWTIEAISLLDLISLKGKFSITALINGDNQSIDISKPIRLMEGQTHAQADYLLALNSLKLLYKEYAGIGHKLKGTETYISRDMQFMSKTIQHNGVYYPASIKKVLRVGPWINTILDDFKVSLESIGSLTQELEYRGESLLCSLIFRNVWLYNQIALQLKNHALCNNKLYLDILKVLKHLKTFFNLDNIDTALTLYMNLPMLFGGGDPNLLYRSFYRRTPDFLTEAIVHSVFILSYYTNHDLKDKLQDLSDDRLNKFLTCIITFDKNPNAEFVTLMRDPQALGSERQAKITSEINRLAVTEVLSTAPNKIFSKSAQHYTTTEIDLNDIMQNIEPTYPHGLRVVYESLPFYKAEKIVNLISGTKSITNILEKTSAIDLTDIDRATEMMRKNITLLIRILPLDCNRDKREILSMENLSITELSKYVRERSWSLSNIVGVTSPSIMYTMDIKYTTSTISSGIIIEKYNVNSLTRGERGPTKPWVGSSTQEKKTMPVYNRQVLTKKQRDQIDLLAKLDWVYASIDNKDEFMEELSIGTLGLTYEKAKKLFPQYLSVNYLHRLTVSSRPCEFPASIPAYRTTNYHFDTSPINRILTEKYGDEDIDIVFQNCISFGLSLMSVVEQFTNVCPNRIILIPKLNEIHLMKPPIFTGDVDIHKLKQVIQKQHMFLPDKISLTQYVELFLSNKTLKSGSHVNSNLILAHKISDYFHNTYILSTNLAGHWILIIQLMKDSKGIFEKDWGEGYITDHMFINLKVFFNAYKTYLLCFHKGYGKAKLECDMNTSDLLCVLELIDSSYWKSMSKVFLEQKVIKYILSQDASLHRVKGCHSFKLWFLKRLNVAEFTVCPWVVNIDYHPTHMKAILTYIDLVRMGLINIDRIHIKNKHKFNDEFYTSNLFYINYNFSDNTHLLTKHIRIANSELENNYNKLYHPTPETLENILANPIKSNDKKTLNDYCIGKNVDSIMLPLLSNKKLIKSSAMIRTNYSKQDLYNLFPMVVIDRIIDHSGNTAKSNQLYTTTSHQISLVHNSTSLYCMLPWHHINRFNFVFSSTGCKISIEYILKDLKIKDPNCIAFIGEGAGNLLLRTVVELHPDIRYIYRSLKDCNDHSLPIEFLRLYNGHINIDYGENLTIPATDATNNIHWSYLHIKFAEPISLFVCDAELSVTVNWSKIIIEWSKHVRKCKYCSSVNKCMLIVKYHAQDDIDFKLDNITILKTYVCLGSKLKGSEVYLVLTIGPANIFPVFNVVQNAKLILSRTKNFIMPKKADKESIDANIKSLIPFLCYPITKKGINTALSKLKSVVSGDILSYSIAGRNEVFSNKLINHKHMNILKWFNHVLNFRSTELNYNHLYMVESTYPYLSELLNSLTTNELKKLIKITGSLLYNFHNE
recombinant RSV complex, sequence (P03421 whole entry, further chain): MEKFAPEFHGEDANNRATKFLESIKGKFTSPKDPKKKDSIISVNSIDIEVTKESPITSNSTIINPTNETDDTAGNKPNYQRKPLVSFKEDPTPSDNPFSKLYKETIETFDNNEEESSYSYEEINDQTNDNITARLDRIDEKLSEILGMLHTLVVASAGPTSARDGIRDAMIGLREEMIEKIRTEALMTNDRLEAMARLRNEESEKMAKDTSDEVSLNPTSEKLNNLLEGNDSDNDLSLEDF

For data set [4], the system named is RSV replicon. The data set can be described thus: microbe, parasite or virus in culture. Conditions: human respiratory syncytial virus, read-out: EC50, the concentration of the drug required for reducing RSV replicon RNA by 50%. The class given is cell-based. In general terms: In antiviral work, replicon cells carry a viral genome segment that copies itself.
Setting [5] is: HEp-2, 120 h, read-out: 50% effective concentration (EC50), HEp-2 cells infected with RSV long strain, 5 days, CCK-8 readout.
The mark [6] stands for this setting: 120 h, read-out: 50% effective concentration (EC50), HEp-2 cells infected with RSV long strain, 5 days, CCK-8 readout.

SMILES strings stand for the structures. Where two headings read alike, the source gives them in different places.

A word on the CC50: it is the concentration that lowers cell viability or growth by half. A higher CC50 goes with lower toxicity to the cells. A word on the IC50: it is the midpoint of a concentration-inhibition curve. With `COc1cc(C(=O)NCC(O)(c2ccc(OC)c(-c3ccc(F)c(Cl)c3)n2)C(F)(F)F)ccc1OC1CC(F)(F)C1` (centres unmarked) [Compound 244], the EC50 in data set [1] (setting [5]) and in data set [4] was less than 1000 nM in each case. This compound returned a CC50 at 5 days in data set [2] greater than 100000 nM. In data set [3], the 50% inhibitory concentration (IC50) was less than 1000 nM.

On to `COc1cc(C(=O)NCC(O)(c2ccc(OC)c(-c3ccc(F)c(Cl)c3)n2)C(F)(F)F)ccc1OC1CCC1` (centres unmarked) [Compound 245], for which the EC50 in data set [1] (setting [5]) and in data set [4] was less than 1000 nM each time. The half-maximal cytotoxic concentration (CC50) at 5 days in data set [2] is greater than 100000 nM. Also, the IC50 in data set [3] was less than 1000 nM.

Regarding `COc1cc(C(=O)NCC(O)(c2ccc(OC)c(-c3ccc(F)c(Cl)c3)n2)C(F)(F)F)ccc1OC1(CF)CC1` (centres unmarked) [Compound 248], the EC50 in data set [1] (setting [5]) and in data set [4] was less than 1000 nM throughout. For the same compound, the CC50 at 5 days in data set [2] was greater than 100000 nM. Further, the 50% inhibitory concentration (IC50) in data set [3] is less than 1000 nM.

`COc1cc(C(=O)NCC(O)(c2ccc(OC)c(-c3ccc(F)c(Cl)c3)n2)C(F)(F)F)ccc1OC1(C)CC1` (centres unmarked) [Compound 249]: the EC50 in data set [1] (setting [5]) and in data set [4] was less than 1000 nM each time. Also, the CC50 at 5 days in data set [2] was in the range of 10000 to 100000 nM. In data set [3], the half-inhibitory concentration (IC50) is less than 1000 nM.

Take `COc1cc(C(=O)NCC(O)(c2ccc(OC)c(-c3ccc(F)c(Cl)c3)n2)C(F)(F)F)ccc1OC1COC1` (centres unmarked) [Compound 250]: the EC50 in data set [1] (setting [6]) and in data set [4] was less than 1000 nM in each case. This compound gave a CC50 at 5 days in data set [2] of 10000 to 100000 nM. In addition, the IC50 in data set [3] was less than 1000 nM.

Turning to `COc1cc(C(=O)NCC(O)(c2cc(C(C)(C)N)cc(-c3ccc(F)c(Cl)c3)n2)C(F)(F)F)ccc1O[C@H]1CCNC1=O` (some centres unmarked) [Compound 283], the EC50 in data set [1] (setting [5]) and in data set [4] was less than 1000 nM in each case. In data set [2], this compound displayed a CC50 at 5 days of 10000 to 100000 nM. Besides, the IC50 in data set [3] was less than 1000 nM.

With `COc1cc(C(=O)NCC(=O)c2cc3c(c(-c4ccc(F)c(C(C)F)c4)n2)OCCC3(C)C)ccc1OCCO` (centres unmarked) [Compound 298], the EC50 in data set [1] (setting [5]) and in data set [4] was less than 1000 nM in each case. For the same compound, in data set [2], the CC50 at 5 days fell in the range of 10000 to 100000 nM. Besides, the IC50 in data set [3] was less than 1000 nM.

For the compound `COc1cc(C(=O)NCC(=O)c2cc3c(c(-c4ccc(F)c(Cl)c4)n2)OCC=C3)ccc1OCCF` [Compound 302], the EC50 in data set [1] (setting [5]) is 1000 to 50000 nM; in data set [4], less than 1000 nM. The compound also showed a 50% cytotoxic concentration (CC50) at 5 days in data set [2] greater than 100000 nM. The half-inhibitory concentration (IC50) in data set [3] is less than 1000 nM.

With `COc1cc(C(=O)NCC(=O)c2cc3c(c(-c4ccc(F)c(Cl)c4)n2)OCCC3)ccc1OCCF` [Compound 303], the EC50 in data set [1] (setting [5]) and in data set [4] was less than 1000 nM throughout. In data set [2], this compound registered a CC50 at 5 days greater than 100000 nM. Also, the IC50 in data set [3] is less than 1000 nM.

`COc1cc(C(=O)NCC(=O)c2cc3c(c(-c4ccc(F)c(Cl)c4)n2)OCCC3)ccc1OCCO` [Compound 304]: the EC50 in data set [1] (setting [5]) and in data set [4] was less than 1000 nM each time. This compound also showed a CC50 at 5 days in data set [2] greater than 100000 nM. Moreover, the IC50 in data set [3] was less than 1000 nM.

On to `COc1cc(C(=O)NCC(O)(c2cc3c(c(-c4ccc(F)c(Cl)c4)n2)OCC3C)C2CC2)ccc1OCCO` (centres unmarked) [Compound 308], for which the EC50 in data set [1] (setting [5]) and in data set [4] was less than 1000 nM throughout. The compound also showed a cytotoxic concentration (CC50) at 5 days in data set [2] of 10000 to 100000 nM. In data set [3], the concentration for half-maximal inhibition (IC50) was less than 1000 nM.

In the case of `COc1cc(C(=O)NCC(O)(c2cc3c(c(-c4ccc(F)c(Cl)c4)n2)OCCC3)C2CC2)ccc1OCCO` (centres unmarked) [Compound 309], the EC50 in data set [1] (setting [5]) and in data set [4] was less than 1000 nM in each case. The compound further yielded a CC50 at 5 days in data set [2] of 10000 to 100000 nM. The half-maximal inhibitory concentration (IC50) in data set [3] is less than 1000 nM.

With `COc1cc(C(=O)NCC(O)(c2cc3c(c(-c4ccc(F)c(Cl)c4)n2)OCC3)C2CC2)ccc1OCCO` (centres unmarked) [Compound 310], the EC50 in data set [1] (setting [6]) and in data set [4] was less than 1000 nM each time. Further, in data set [2], the 50% cytotoxic concentration (CC50) at 5 days fell in the range of 10000 to 100000 nM. Besides, in data set [3], the half-maximal inhibitory concentration (IC50) was less than 1000 nM.

On to `COc1cc(C(=O)NCC(O)(c2cc3c(c(-c4ccc(F)c(Cl)c4)n2)OCCC3(C)C)C2CC2)ccc1OCCO` (centres unmarked) [Compound 312], for which the EC50 in data set [1] (setting [5]) and in data set [4] was less than 1000 nM each time. The compound also gave a cytotoxic concentration (CC50) at 5 days in data set [2] of 10000 to 100000 nM. In addition, the half-inhibitory concentration (IC50) in data set [3] is less than 1000 nM.
